Bounds are passed on as bounds.

Broadly, the IC50 is the concentration that inhibits the measured activity by half. For orientation: Ki means the dissociation constant of the complex between target and ligand, obtained from inhibition or displacement. As a reminder, the melting point is the temperature, or range, at which the solid turns liquid.

The target of one series is T1, rat EP2 receptor (Rattus norvegicus, UniProt Q62928).
T1 construct: cells seeded on STEP plates
Put plainly: SEAP activity assay on EP2 STEP plate. The conditions noted are these: SEAP luminescence, 6-8 hours of stimulation; read-out: STEP cell functional assay EC50 SEAP/EP2. In kind it is cell-based. The text has this: (§1) 2. […] In addition each concentration had triplicates. […] 4. […] Cover the plate with the lid. […] 6. […] 7. […] 8.

For series [1], the target named is T2, rat EP4 receptor (Rattus norvegicus, UniProt P43114).
T2 construct: cells seeded on STEP plates
T2 sequence (P43114 whole entry): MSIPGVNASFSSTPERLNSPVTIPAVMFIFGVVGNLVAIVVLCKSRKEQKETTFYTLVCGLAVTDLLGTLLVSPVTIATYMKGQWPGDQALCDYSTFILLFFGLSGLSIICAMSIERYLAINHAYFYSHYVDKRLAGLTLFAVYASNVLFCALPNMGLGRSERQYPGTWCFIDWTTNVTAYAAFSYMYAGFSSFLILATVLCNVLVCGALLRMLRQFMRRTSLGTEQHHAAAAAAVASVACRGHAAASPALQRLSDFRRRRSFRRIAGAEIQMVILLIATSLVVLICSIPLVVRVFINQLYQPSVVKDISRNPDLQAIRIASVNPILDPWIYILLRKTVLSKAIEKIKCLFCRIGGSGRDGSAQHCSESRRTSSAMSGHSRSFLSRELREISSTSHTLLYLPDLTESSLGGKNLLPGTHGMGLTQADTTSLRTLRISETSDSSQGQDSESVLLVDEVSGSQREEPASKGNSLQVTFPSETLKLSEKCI
Put plainly: SEAP activity assay on EP4 STEP plate. The class given is cell-based. The conditions noted are these: SEAP luminescence, 6-8 hours of stimulation; read-out: STEP cell functional assay EC50 SEAP/EP4.
Source text: as §1

For series [2], the target named is T3, Human Prostanoid EP4 Receptor (Homo sapiens, UniProt P35408).
T3 construct: expressed in transfected cells; host or cells: HEK-293 cells (cell membrane homogenates)
T3 sequence (P35408 whole entry): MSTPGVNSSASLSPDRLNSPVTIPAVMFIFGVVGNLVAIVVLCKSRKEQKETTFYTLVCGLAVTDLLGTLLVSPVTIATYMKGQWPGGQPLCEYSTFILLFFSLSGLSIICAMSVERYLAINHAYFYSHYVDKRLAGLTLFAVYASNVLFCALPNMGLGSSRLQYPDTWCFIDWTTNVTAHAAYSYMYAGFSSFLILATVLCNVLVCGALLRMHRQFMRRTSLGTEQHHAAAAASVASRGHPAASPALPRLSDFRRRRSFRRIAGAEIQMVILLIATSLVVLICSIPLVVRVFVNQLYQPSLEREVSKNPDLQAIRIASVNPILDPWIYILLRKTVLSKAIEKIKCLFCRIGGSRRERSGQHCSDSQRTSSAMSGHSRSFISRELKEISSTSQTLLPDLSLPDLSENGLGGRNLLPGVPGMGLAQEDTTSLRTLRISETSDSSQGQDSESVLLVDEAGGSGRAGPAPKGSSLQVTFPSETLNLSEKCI
Description: Radioligand binding assay, agonist site of human prostanoid EP4 receptor in transfected HEK-293 cells. The conditions noted are these: for inhibition at 0.1 µM: 2 h, pH 6, read-out: hEP4 receptor binding, % @ 100 nM, @ 100 nM test compound; for IC50: read-out: hEP4 receptor binding IC50; for Ki: read-out: hEP4 receptor binding Ki. The protocol:
Radioligand Binding Assay for the Evaluation of the Affinity of Compounds for the Agonist Site of the Human Prostanoid EP4 Receptor in Transfected HEK-293 Cells
Following incubation, the samples are filtered rapidly under vacuum through glass fiber filters (GF/B, Packard) presoaked with 0.3% PEI and rinsed several times with ice-cold 50 mM Tris-HCl using a 96-sample cell harvester (Unifilter, Packard). The filters are dried then counted for radioactivity in a scintillation counter (Topcount, Packard) using a scintillation cocktail (Microscint 0, Packard).

Series [3] deals with T2, rat EP4 receptor. Put plainly: cAMP level assay on EP4 STEP plate. In kind it is cell-based. The settings on record: cAMP by ELISA, 30 minutes, 500 μM IBMX; read-out: STEP cell functional assay EC50 cAMP/EP4. The source says: Functional Cellular Assays (STEP Plate Format)
Procedure of cAMP Assay for EP2/EP4 Agonist
3. […] In addition each concentration had triplicates.
6. Aspirate the supernatant.
(Cyclic AMP is a second messenger, typically raised through Gs and lowered through Gi signalling.)

The subject of another series is calvarial bone defect. Put plainly: Rat calvarial defect model. In kind it is in vivo, female Sprague Dawley rats. The conditions noted are these: 3 mg/ml in calcium phosphate cement/demineralized bone matrix, eight weeks, values only in FIG. 1. The protocol:
The rat calvarial defect model is a widely used model through which the ability of a treatment agent to induce bone formation is assessed (Aghaloo et al., The effect of NELL1 and bone morphogenetic protein-2 on calvarial bone regeneration, J. Oral Maxillofac. Surg., 2010, 68, 300-308; Mark et al., Repair of calvarial nonunions by osteogenin, a bone-inductive protein, Plast. Reconstr. Surg., 1990, 86, 623-30). Bone defects are created by removal of bone from the cranium of female Sprague Dawley rats by a bone trephine (cranial defect). Cranial defects are 2.6 mm in diameter and the cranium approximately 1 mm thick. A matrix of approximately 2 mm thickness is applied to the defect. Thus the dosing volume for each defect is calculated as π*r^2*matrix thickness=3.14*1.3^2*2=10.61 μl and rounded to 11 μl for purposes of dose calculation. Example 2E is delivered set inside calcium phosphate cement that, after loading with drug and setting, is ground to a fine powder and suspended in demineralized bone matrix at a ratio of 1:8 (weight/volume). Example 2E is tested at one dose of 3 mg/ml with five rats in the test group. […] The area measured at eight weeks was compared to the area of the original defect and the degree of repair calculated by the following formula: (original area-current area)/original area*100 The mean repair for each group after eight weeks of treatment is shown in the FIG. 1.

T1 sequence (Q62928 whole entry): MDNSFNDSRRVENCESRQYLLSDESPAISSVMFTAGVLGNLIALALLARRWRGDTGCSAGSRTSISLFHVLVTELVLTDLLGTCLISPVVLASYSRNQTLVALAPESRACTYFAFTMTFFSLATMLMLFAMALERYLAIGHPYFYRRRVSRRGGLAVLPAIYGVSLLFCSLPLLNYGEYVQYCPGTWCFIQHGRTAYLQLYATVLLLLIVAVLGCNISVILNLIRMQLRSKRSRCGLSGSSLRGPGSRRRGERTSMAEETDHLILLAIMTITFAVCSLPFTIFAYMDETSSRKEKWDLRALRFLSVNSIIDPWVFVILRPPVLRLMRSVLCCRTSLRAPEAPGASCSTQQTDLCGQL

For the compound `CC#CCC(C)[C@H](O)/C=C/[C@H]1CCC(=O)N1CCCCCCC(=O)O` (mixture of isomers) [Example 1C, 7-((2R)-2-((3S,4R/S,E)-3-hydroxy-4-methyloct-1-en-6-yn-1-yl)-5-oxopyrrolidin-1-yl)heptanoic acid], the values for the EC50 at rat EP2 receptor and at rat EP4 receptor [1] were 760 nM and 0.67 nM, respectively. For the same compound, the inhibition at 0.1 µM in series [2] came out at 86%.
For `CC#CCC(C)[C@@H](O)/C=C/[C@H]1CCC(=O)N1CCCCCCC(=O)O` (mixture of isomers) [Example 1D, 7-((2R)-2-((3R,4R/S,E)-3-hydroxy-4-methyloct-1-en-6-yn-1-yl)-5-oxopyrrolidin-1-yl)heptanoic acid], the EC50 was > 10000 nM at rat EP2 receptor and 4.82 nM on rat EP4 receptor [1]. In addition, in series [2], the inhibition at 0.1 µM was found to be 11%.
With `CCC#CCC(C)[C@H](O)/C=C/[C@H]1CCC(=O)N1CCCCCCC(=O)O` (mixture of isomers) [Example 2C, 7-((2R)-2-((3S,4R/S,E)-3-hydroxy-4-methylnon-1-en-6-yn-1-yl)-5-oxopyrrolidin-1-yl)heptanoic acid], the EC50 on rat EP2 receptor is 905 nM. Besides, the EC50 at rat EP4 receptor [1] came to 0.064 nM. In series [2], the IC50 amounted to 4 nM and the Ki is 1.5 nM.
For `CC#CCC(C)[C@H](O)/C=C/[C@H]1CCC(=O)N1CCc1ccc(C(=O)O)cc1` (mixture of isomers) [Example 8C, 4-(2-((2R)-2-((3S,4R/S,E)-3-hydroxy-4-methyloct-1-en-6-yn-1-yl)-5-oxopyrrolidin-1-yl)ethyl)benzoic acid], the EC50 on rat EP2 receptor came out at 120 nM. In addition, at rat EP4 receptor [1], the EC50 came out at 0.19 nM. For the same compound, in series [2], the IC50 was found to be 1.3 nM and the Ki stood at 0.47 nM.
For the compound `CC#CC[C@H](C)[C@H](O)/C=C/[C@H]1CCC(=O)N1CCCCCCC(=O)O` [Example 1E, 7-((R)-2-((3S,4S,E)-3-hydroxy-4-methyloct-1-en-6-yn-1-yl)-5-oxopyrrolidin-1-yl)heptanoic acid], the melting point lay within 113 to 114 °C. For the same compound, the EC50 at rat EP2 receptor was 800 nM. For the same compound, the EC50 at rat EP4 receptor [1] was 0.57 nM. Also, the EC50 at rat EP4 receptor [3] was 2.98 nM. In series [2], the IC50 worked out at 3.9 nM and the inhibition constant (Ki) was 1.5 nM.
Turning to `CC#CC[C@@H](C)[C@H](O)/C=C/[C@H]1CCC(=O)N1CCCCCCC(=O)O` [Example 1F, 7-((R)-2-((3S,4R,E)-3-hydroxy-4-methyloct-1-en-6-yn-1-yl)-5-oxopyrrolidin-1-yl)heptanoic acid], the melting point was in the range of 100 to 101 °C. Besides, on rat EP2 receptor, the EC50 stood at 184 nM. Also, the EC50 at rat EP4 receptor [1] is 5.79 nM. Also, in series [2], the IC50 was 18 nM and the inhibition constant Ki stood at 6.9 nM.
For `CCC#CC[C@H](C)[C@H](O)/C=C/[C@H]1CCC(=O)N1CCCCCCC(=O)O` [Example 2E, 7-((R)-2-((3S,4S,E)-3-hydroxy-4-methylnon-1-en-6-yn-1-yl)-5-oxopyrrolidin-1-yl)heptanoic acid], the EC50 at rat EP4 receptor [1] was 0.19 ± 0.07 nM. For the same compound, the “Healing of a calvarial bone defect” value with calvarial bone defect was “Accelerated Healing”. The EC50 on rat EP4 receptor [3] was found to be 0.96 ± 0.46 nM. Besides, in series [2], the IC50 is 3 nM and the inhibition constant (Ki) turned out to be 1.1 nM.
Regarding `CCC#CC[C@H](C)[C@H](O)/C=C/[C@H]1CCC(=O)N1CCc1ccc(C(=O)O)cc1` [Example 9C, 4-(2-((R)-2-((3S,4S,E)-3-hydroxy-4-methylnon-1-en-6-yn-1-yl)-5-oxopyrrolidin-1-yl)ethyl)benzoic acid], the EC50 at rat EP4 receptor [1] came out at 0.02 nM. Also, the EC50 at rat EP4 receptor [3] was found to be 0.31 nM. For the same compound, in series [2], the IC50 stood at 0.67 nM and the Ki amounted to 0.25 nM.
For `CCC#CC[C@H](C)[C@H](O)/C=C/[C@H]1CCC(=O)N1CCCc1ccc(C(=O)O)s1` [Example 17D, 5-(3-((R)-2-((3S,4S,E)-3-hydroxy-4-methylnon-1-en-6-yn-1-yl)-5-oxopyrrolidin-1-yl)propyl)thiophene-2-carboxylic acid], the EC50 on rat EP2 receptor came to 5300 nM; on rat EP4 receptor [1], 0.32 nM; on rat EP4 receptor [3] it was 1.54 nM. Besides, in series [2], the IC50 was determined as 6.1 nM. In addition, the Ki in series [2] was 2.3 nM.
Turning to `CCC#CCC(C)[C@H](O)/C=C/[C@H]1CCC(=O)N1CCCc1ccc(C(=O)O)s1` (stereo partly drawn) [Example 17F, 5-(3-((R)-2-((3S,E)-3-hydroxy-4-methylnon-1-en-6-yn-1-yl)-5-oxopyrrolidin-1-yl)propyl)thiophene-2-carboxylic acid], the EC50 at rat EP2 receptor was > 10000 nM; on rat EP4 receptor [1] it was 0.091 nM.
As to `CCC#CCC(C)[C@@H](O)/C=C/[C@H]1CCC(=O)N1CCCc1ccc(C(=O)O)s1` (stereo partly drawn) [Example 17G, 5-(3-((R)-2-((3R,E)-3-hydroxy-4-methylnon-1-en-6-yn-1-yl)-5-oxopyrrolidin-1-yl)propyl)thiophene-2-carboxylic acid], the EC50 on rat EP2 receptor is > 10000 nM; on rat EP4 receptor [1], 18.4 nM.
As for `CC(CC#Cc1ccccc1)[C@H](O)/C=C/[C@H]1CCC(=O)N1CCCc1ccc(C(=O)O)s1` (stereo partly drawn) [Example 18C, 5-(3-((2R)-2-((3S,E)-3-hydroxy-4-methyl-7-phenylhept-1-en-6-yn-1-yl)-5-oxopyrrolidin-1-yl)propyl)thiophene-2-carboxylic acid], the EC50 on rat EP2 receptor is > 10000 nM; at rat EP4 receptor [1], < 0.01 nM.
Take `CC(CC#Cc1ccccc1)[C@@H](O)/C=C/[C@H]1CCC(=O)N1CCCc1ccc(C(=O)O)s1` (stereo partly drawn) [Example 18D, 5-(3-((2R)-2-((3R,E)-3-hydroxy-4-methyl-7-phenylhept-1-en-6-yn-1-yl)-5-oxopyrrolidin-1-yl)propyl)thiophene-2-carboxylic acid]: the results for the EC50 on rat EP2 receptor and on rat EP4 receptor [1] were > 10000 nM and 2.03 nM, respectively.

The values are drawn from patent publication US9688627B2, “Lactam compounds as EP4 receptor-selective agonists for use in the treatment of EP4-mediated diseases and conditions” (Cayman Chemical Company, Inc., priority 2013, dated 2017).
